According to patent US7973047B2, “Beta-Secretase modulators and methods of use” (Amgen Inc., priority 2010, dated 2011):
Like-named read-outs stand apart in the source and are kept apart here.

Tested on: Aβ40 in conditioned medium of cells stably expressing Amyloid Precursor Protein (APP)
Assay: BACE cell-based assay: Aβ40 in conditioned medium by sandwich ELISA
Settings: unit inferred, read-out: Cell Assay
In short: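 Aβ40 in conditioned medium was read by time-resolved fluorescence sandwich ELISA (capture pAb40, detection biotinylated 6E10, 4° C incubations). Compounds were applied for 24 h to cells stably expressing APP, at 10 doses from 100 or 10 μM top, 0.1% DMSO. IC50 derived from percent of control.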

[1] = cell based assay data of Table 4

Row | Compound | IC50 [1] | IC50 (cell based assay data, Table 4)
1 | CC(=O)N[C@@H](Cc1ccccc1)[C@H](O)CN[C@H]1CC2(CCC2)Oc2ncc(CC(C)(C)C(F)F)cc21 [compound 652] | 7.84 nM | –
2 | CCc1cc2c(s1)CC1(CCC1)C[C@@H]2NC[C@@H](O)[C@H](Cc1ccccc1)NC(C)=O [compound 653, N-((1S,2R)-3-(((4S)-2-ethyl-4,7-dihydro-5H-spiro[1-benzothiophene-6,1′-cyclobutan]-4-yl)amino)-2-hydroxy-1-(phenylmethyl)propyl)acetamide] | 127 nM | –
3 | CC(=O)N[C@@H](Cc1ccccc1)[C@H](O)CN[C@H]1CC(C)(C)Cc2sc(CC(C)(C)C)cc21 [compound 654, N-((1S,2R)-3-(((4S)-2-(2,2-dimethylpropyl)-6,6-dimethyl-4,5,6,7-tetrahydro-1-benzothien-4-yl)amino)-2-hydroxy-1-(phenylmethyl)propyl)acetamide] | 13.8 nM | –
4 | COC(=O)N[C@@H](Cc1ccccc1)[C@H](O)CN[C@H]1CC(C)(C)Cc2sc(CC(C)(C)C)cc21 [compound 655, methyl ((1S,2R)-3-(((4S)-2-(2,2-dimethylpropyl)-6,6-dimethyl-4,5,6,7-tetrahydro-1-benzothien-4-yl)amino)-2-hydroxy-1-(phenylmethyl)propyl)carbamate] | 105 nM | –
5 | CC(=O)N[C@@H](Cc1cc(F)cc(F)c1)[C@H](O)CN[C@H]1CC2(CCC2)Oc2nc(F)c(CC(C)(C)C)cc21 [compound 659] | 6.42 nM | –
6 | CC(=O)N[C@@H](Cc1cccc(F)c1)[C@H](O)CN[C@H]1CC2(CCC2)Oc2nc(F)c(CC(C)(C)C)cc21 [compound 661] | 10.2 nM | –
7 | CC(=O)N[C@@H](Cc1ccc(F)cc1)[C@H](O)CN[C@H]1CC2(CCC2)Oc2nc(F)c(CC(C)(C)C)cc21 [compound 662] | 94.7 nM | –
8 | COc1ccc(C[C@H](NC(C)=O)[C@H](O)CN[C@H]2CC3(CCC3)Oc3ncc(CC(C)(C)C)cc32)cc1F [compound 665] | 8.53 nM | –
9 | COc1ccc(C[C@H](NC(C)=O)[C@@H](O)CN[C@H]2CC3(CCC3)Oc3ncc(CC(C)(C)C)cc32)cc1F [compound 666] | 162 nM | –
10 | CC(=O)N[C@@H](Cc1ccc(Cl)cc1)[C@H](O)CN[C@H]1CC2(CCC2)Oc2nc(F)c(CC(C)(C)C)cc21 [compound 667] | 385 nM | –
11 | CC(=O)N[C@@H](Cc1ccc(Cl)cc1)[C@H](O)CN[C@H]1C[C@@]2(CCOC2)Oc2ncc(CC(C)(C)C)cc21 [compound 669] | ≥ 10000 nM | –
12 | CC(=O)N[C@@H](Cc1ccc(Cl)cc1)[C@H](O)CN[C@H]1C[C@]2(CCOC2)Oc2ncc(CC(C)(C)C)cc21 [compound 670, N-((1S,2R)-1-((4-chlorophenyl)methyl)-3-(((3R,4′S)-6′-(2,2-dimethylpropyl)-3′,4,4′,5-tetrahydrospiro[furan-3,2′-pyrano[2,3-b]pyridin]-4′-yl)amino)-2-hydroxypropyl)acetamide] | 51.8 nM | –
13 | CC(=O)N[C@@H](Cc1ccc(F)cc1)[C@H](O)CN[C@H]1C[C@@]2(CCOC2)Oc2ncc(CC(C)(C)C)cc21 [compound 671] | 20.5 nM | –
14 | CC(=O)N[C@@H](Cc1ccc(F)cc1)[C@H](O)CN[C@H]1C[C@]2(CCOC2)Oc2ncc(CC(C)(C)C)cc21 [compound 672] | 23.8 nM | –
15 | CC(=O)N[C@@H](Cc1ccc(F)cc1)[C@H](O)CN[C@H]1CC2(CCC2)Oc2ncc([C@@H](F)C(C)(C)C)cc21 [compound 674] | 1080 nM | –
16 | CC(=O)N[C@@H](Cc1ccc(F)cc1)[C@H](O)CN[C@H]1CC2(CCC2)Oc2ncc([C@H](F)C(C)(C)C)cc21 [compound 675] | 12.1 nM | –
17 | CC(=O)N[C@@H](Cc1ccc(F)c(C(F)(F)F)c1)[C@H](O)CN[C@H]1CC2(CCC2)Oc2ncc(CC(C)(C)C)cc21 [compound 676] | 18.1 nM | –
18 | CC(=O)N[C@@H](Cc1cccc(F)c1F)[C@H](O)CN[C@H]1CC2(CCC2)Oc2ncc([C@H](F)C(C)(C)C)cc21 [compound 677] | 8.61 nM | –
19 | CC(=O)N[C@@H](Cc1cccc(F)c1)[C@H](O)CN[C@H]1CC2(CCC2)Oc2ncc([C@H](F)C(C)(C)C)cc21 [compound 678] | 2.07 nM | –
20 | CC(=O)N[C@@H](Cc1ccccc1)[C@H](O)CN[C@H]1CC2(CCC2)Oc2ncc([C@H](F)C(C)(C)C)cc21 [compound 679] | 6.04 nM | –
21 | CC(=O)N[C@@H](Cc1ccc(Cl)cc1)[C@H](O)CN[C@H]1CC2(CCC2)Oc2ncc([C@H](F)C(C)(C)C)cc21 [compound 680] | 23.1 nM | –
22 | CC(=O)N[C@@H](Cc1cc(F)cc(F)c1)[C@H](O)CN[C@H]1CC2(CCC2)Oc2ncc([C@H](F)C(C)(C)C)cc21 [compound 681] | 3.46 nM | –
23 | CC(=O)N[C@@H](Cc1ccc(F)cc1)[C@H](O)CN[C@H]1CC2(CCC2)Oc2ncc(CC3CCC3)cc21 [compound 682] | 66.5 nM | –
24 | CC(=O)N[C@@H](Cc1ccc(F)cc1)[C@H](O)CN[C@@H]1c2cc(CC(C)(C)C)cnc2N2CCC[C@@H]12 [compound 683] | 524 nM | –
25 | CCCCC(O)c1cnc2c(c1)[C@@H](NC[C@@H](O)[C@H](Cc1ccc(F)cc1)NC(C)=O)CC1(CCC1)O2 (some centres unmarked) [compound 684] | 2860 nM | –

Row | Compound | IC50 [1] | IC50 (cell based assay data, Table 4)
26 | CC(=O)N[C@@H](Cc1cc(F)c(F)cc1F)[C@H](O)CN[C@H]1CC2(CCC2)Oc2ncc(CC(C)(C)C)cc21 [compound 685] | 9.28 nM | –
27 | CC(=O)N[C@@H](Cc1cc(F)c(F)c(F)c1)[C@H](O)CN[C@H]1CC2(CCC2)Oc2ncc(CC(C)(C)C)cc21 [compound 686] | 7.07 nM | –
28 | CC(=O)N[C@@H](Cc1cc(F)cc(F)c1)[C@H](O)CN[C@H]1CC2(CCC2)Oc2ncc(CC3CC3)cc21 [compound 687] | 7.84 nM | –
29 | CCC(CC)Cc1cnc2c(c1)[C@@H](NC[C@@H](O)[C@H](Cc1cc(F)cc(F)c1)NC(C)=O)CC1(CCC1)O2 [compound 691] | 95.8 nM | –
30 | CC(=O)N[C@@H](Cc1ccccc1)[C@H](O)CN[C@H]1CC(C)(C)Nc2ccc(CC(C)(C)C)cc21 [compound 692] | 30.6 nM | –
31 | CC(=O)N[C@@H](Cc1cc(F)cc(F)c1)[C@H](O)CN[C@H]1CC(C)(C)Nc2ccc(CC(C)(C)C)cc21 [compound 693] | 5.49 nM | –
32 | CCCc1cnc2c(c1)[C@@H](NC[C@@H](O)[C@H](Cc1ccc(F)cc1)NC(C)=O)CC1(CCC1)O2 [compound 694] | 37.2 nM | –
33 | CC[C@H](C)Cc1cnc2c(c1)[C@@H](NC[C@@H](O)[C@H](Cc1ccc(F)cc1)NC(C)=O)CC1(CCC1)O2 [compound 695] | 43.4 nM | –
34 | CC(=O)N[C@@H](Cc1ccc(F)cc1)[C@H](O)CN[C@H]1CC2(CCC2)Oc2ncc(C=C(C)C)cc21 [compound 696] | 254 nM | –
35 | CC(=O)N[C@@H](Cc1ccc(F)cc1)[C@H](O)CN[C@H]1CC2(CCC2)Oc2ncc(C(=O)C(C)(C)C)cc21 [compound 697] | 277 nM | –
36 | [N-]=[N+]=NCC(=O)N[C@@H](Cc1ccccc1)[C@H](O)CN[C@H]1CC2(CCC2)Oc2ccc(Br)cc21 [compound 698] | 2380 nM | –
37 | CC(=O)N[C@@H](Cc1cccc(C#N)c1)[C@H](O)CN[C@H]1CC2(CCC2)Oc2ncc(C(F)(F)F)cc21 [compound 699] | 849 nM | –
38 | CC(=O)N[C@@H](Cc1cc(F)cc(F)c1)[C@H](O)CN[C@H]1CC2(CCC2)Oc2ncc(C(F)(F)F)cc21 [compound 700, N-((1S,2R)-1-((3,5-difluorophenyl)methyl)-2-hydroxy-3-(((4′S)-6′-(trifluoromethyl)-3′,4′-dihydrospiro[cyclobutane-1,2′-pyrano[2,3-b]pyridin]-4′-yl)amino)propyl)acetamide] | 1200 nM | –
39 | CC(=O)N[C@@H](Cc1ccc(F)c(F)c1)[C@H](O)CN[C@H]1CC2(CCC2)Oc2ncc(CC(C)(C)C)cc21 [compound 701] | 2.36 nM | –
40 | CC(=O)N[C@@H](Cc1cccc(Cl)c1)[C@H](O)CN[C@H]1CC2(CCC2)Oc2ncc(CC(C)(C)C)cc21 [compound 702] | 1.24 nM | –
41 | CC(=O)N[C@@H](Cc1ccccc1F)[C@H](O)CN[C@H]1CC2(CCC2)Oc2ncc(CC(C)(C)C)cc21 [compound 703] | 5.08 nM | –
42 | CC(=O)N[C@@H](Cc1ccc(F)cc1F)[C@H](O)CN[C@H]1CC2(CCC2)Oc2ncc(CC(C)(C)C)cc21 [compound 704] | 18.4 nM | –
43 | CC#CC[C@H](NC(C)=O)[C@H](O)CN[C@H]1CC2(CCC2)Oc2ncc(CC(C)(C)C)cc21 [compound 705, N-((1S)-1-((1R)-2-(((4′S)-6′-(2,2-dimethylpropyl)-3′,4′-dihydrospiro[cyclobutane-1,2′-pyrano[2,3-b]pyridin]-4′-yl)amino)-1-hydroxyethyl)-3-pentyn-1-yl)acetamide] | 433 nM | –
44 | CC(=O)N[C@@H](Cc1ccc(F)c(Cl)c1)[C@H](O)CN[C@H]1CC2(CCC2)Oc2ncc(CC(C)(C)C)cc21 [compound 706] | 3.11 nM | –
45 | CC(=O)N[C@@H](Cc1ccc(Cl)cc1)[C@H](O)CN[C@H]1CC2(CCC2)Oc2ncc(CC(C)(C)C)cc21 [compound 707] | 12.6 nM | –
46 | CC(=O)N[C@@H](Cc1ccccc1Cl)[C@H](O)CN[C@H]1CC2(CCC2)Oc2ncc(CC(C)(C)C)cc21 [compound 708] | 23.4 nM | –
47 | CC(=O)N[C@@H](Cc1ccc(F)c(N(C)C)c1)[C@H](O)CN[C@H]1CC2(CCC2)Oc2ncc(CC(C)(C)C)cc21 [compound 709] | 8.01 nM | –
48 | CCNc1cc(C[C@H](NC(C)=O)[C@H](O)CN[C@H]2CC3(CCC3)Oc3ncc(CC(C)(C)C)cc32)ccc1F [compound 710] | 4.25 nM | –
49 | CC(=O)N[C@@H](Cc1ccc(Cl)c(Cl)c1)[C@H](O)CN[C@H]1CC2(CCC2)Oc2ncc(CC(C)(C)C)cc21 [compound 711, N-((1S,2R)-1-((3,4-dichlorophenyl)methyl)-3-(((4′S)-6′-(2,2-dimethylpropyl)-3′,4′-dihydrospiro[cyclobutane-1,2′-pyrano[2,3-b]pyridin]-4′-yl)amino)-2-hydroxypropyl)acetamide] | 29.6 nM | –
50 | CC(=O)N[C@@H](Cc1ccc(OC(F)(F)F)cc1)[C@H](O)CN[C@H]1CC2(CCC2)Oc2ncc(CC(C)(C)C)cc21 [compound 712] | – | 65 nM
